The values below come from patent publication US20240003908A1, “POLYOL BIOMARKERS FOR CONGENITAL DISORDERS OF GLYCOSYLATION” (Mayo Foundation for Medical Education and Research, priority 2020, published 2024).

Data set [1] concerns PMM-deficient fibroblasts. The experiment in a line: Multiplexed proteomics of PMM-deficient fibroblasts treated with epalrestat or vehicle. The format is cell-based, human. The text has this: (§1) Proteomics and glycoproteomics: Cell were scraped in PBS, pH 7.4 and sonicated with a tip sonicator at 40% amplitude for 3 cycles of 10 seconds each. Equal amount of proteins were digested with trypsin as described elsewhere (Mun et al., Anal Chem 92:14466-14475, 2020). The digested peptides were labeled with tandem mass tag (TMT) reagents as per the manufacturer's instructions (ThermoFisher). Labelled samples were pooled, and either size-exclusion chromatography or basic pH reversed-phase fractionation was performed. An aliquot of dried peptides was resuspended in 100 μL of 0.1% formic acid and injected into Superdex peptide 10/300 column (GE Healthcare). Twenty-one (21) early fractions were collected starting at 10 minutes after injection (total run time of 130 minutes) and analyzed by LC-MS/MS as described elsewhere (Mun et al., supra). Another aliquot of total peptides was cleaned up by C18 TopTips (Glygen) and fractionated by bRPLC on a reversed phase C18 column (4.6×100 mm column). Twelve (12) fractions were dried and re-suspended in 0.1% formic acid for LC-MS/MS analysis.
(§2) A modification of the LC-MS/MS parameters described by Mun et al. (supra) were used. Specifically, 21 early fractions from SEC and 12 fractions of bRPLC were analyzed by Orbitrap Exploris480 mass spectrometer (Thermo Fisher Scientific) coupled to an EASY-Spray column (Thermo Fisher Scientific). Every run was 130 minutes with a flow rate of 300 nL/minute. The gradient used for separation was: equilibration at 3% solvent B from 0 to 4 minutes, 3% to 10% sol B from 4 to 10 minutes, 10% to 35% sol B from 10.1 to 125 minutes, and 35% to 80% sol B from […]. All experiments were done in DDA mode with the top 15 ions isolated at a window of 0.7 m/z and a default charge state of +2. Charge states ranging from +2 to +7 were considered for MS/MS events. Stepped collision energy was applied to precursors at normalized collision energies of 15, 25, and 40. The MS precursor mass range was set to 375 to 2000 m/z and 100 to 2000 for MS/MS. The automatic gain control for MS and MS/MS were 1×10^6 and 1×10^5 and the injection times to reach AGC were 50 ms and 250 ms, respectively. 60 second dynamic exclusion was applied. Data acquisition was performed with the option of Lock mass (441.1200025 m/z) for all data.
Database searching and analysis: The publicly available software pGlyco Version 2.2.0 was used (Zeng et al., Sci Rep 6:25102, 2016; and Liu et al., Nat Commun 8:438, 2017). A glycan database containing 8,092 entries and Uniprot Human Reviewed protein sequences (20,432 entries) were used as protein sequence fasta files. […] Reporter ion quantification was performed in Proteome Discoverer 2.5 using “reporter ion quantifier” node and Ids were matched with quantitation on a scan-to-scan basis (MS/MS). […]

The nature of data set [2]: Epalrestat plasma pharmacokinetics (LC-MS/MS) in patient P1. The format is in vivo, human. As to the method: Pharmacokinetics: Epalrestat plasma concentrations were measured using an LC-MS/MS assay that was validated according to principles outlined in FDA Guidance Documents. Epalrestat-d5 was utilized as the internal standard. The mass spectrometer was coupled to a Waters Acquity H class ultra-performance liquid chromatography system (Milford, MA). Data were acquired and analyzed with Waters MassLynx v4.1 software. The chromatographic separation of epalrestat and the internal standard was accomplished using an Agilent Infinity Lab Poroshell 120 EC-C18 column, 2.1×100 mm, 2.7 μm (ChromTech, Apple Valley, MN) with an Agilent Poroshell 120 EC-C18 precolumn, 2.1×5 mm, 2.7 μm (ChromTech). Plasma samples were analyzed after protein precipitation with methanol, concentration to dryness under nitrogen, and reconstitution in methanol:water (1:1 v/v). Pharmacokinetics were estimated by non-linear least squares regression using the program Phoenix WinNonlin.

Data set [3] relates to PMM-deficient fibroblasts. Kind of data set: Glycoproteomics of PMM-deficient fibroblasts treated with epalrestat or vehicle. The format is cell-based, human.
Description: as §1, §2
Database searching and analysis: The publicly available software pGlyco Version 2.2.0 was used (Zeng et al., Sci Rep 6:25102, 2016; and Liu et al., Nat Commun 8:438, 2017). A glycan database containing 8,092 entries and Uniprot Human Reviewed protein sequences (20,432 entries) were used as protein sequence fasta files. Cleavage specificity was set to fully tryptic with 2 missed cleavages, and precursor and fragment tolerance were set to 5 and 20 ppm. […] Reporter ion quantification was performed in Proteome Discoverer 2.5 using “reporter ion quantifier” node and Ids were matched with quantitation on a scan-to-scan basis (MS/MS). […]
To compare responders (patients who had more than a 20% increase in enzyme activity after epalrestat treatment) to non-responders (patients who had less than a 20% increase in enzyme activity after epalrestat treatment) and gauge the increase in glycosylation upon epalrestat treatment, linear fold changes (treated/untreated) were calculated for each of these 412 glycopeptides. The fold changes of non-responders were subtracted from the fold changes of the responders, and the fold change difference (delta fold change) was calculated. […]

Where “and” joins values, the source holds several entries; their conditions need not be identical. Equal entries are not always repeated.

What is called AUC is the area under the concentration-time curve, a measure of exposure. As a reminder, the t½ is how long it takes for the measured level to halve. Higher therefore signals slow loss. For `CC(/C=C1\SC(=S)N(CC(=O)O)C1=O)=C\c1ccccc1` [epalrestat], the “Sorbitol dehydrogenase (SORD) increase in abundance” value in data set [1] (epalrestat-treated vs untreated PMM2-CDG fibroblasts) was found to be 11%. For the same compound, in data set [1] (of the 13 changed proteins), the “number of proteins increased post treatment (30% cutoff)” value is 12. For the same compound, the “number of proteins different post-treatment with a 30% or bigger change cutoff” value in data set [1] (paired analysis before and after epalrestat) is 13 proteins. For the same compound, in data set [1] (paired analysis before and after epalrestat, P1-P6 fibroblasts), the “number of proteins different post-treatment” value came out at 628 proteins. Moreover, the concentration at 8 h in data set [2] (human, plasma, oral, 5 mg, patient P1, after eight hours, read-out: trough level before the next dose) was 23.4 ng/mL and 100 nM. For the same compound, the AUC in data set [2] (human, plasma, oral, patient P1, after a 5 mg dose, read-out: systemic exposure (AUC)) came out at 2790 ng·h/mL. Moreover, in data set [2] (human, plasma, po, 5 mg, patient P1, oral dose, plasma, read-out: t½ (converted)), the half-life was roughly 1.04 h. For the same compound, in data set [2] (patient P1, after a 5 mg dose), the oral clearance worked out at 1.8 L/h. The “time of peak concentration after administration” value in data set [2] (patient P1, oral 0.27 mg/kg (5 mg) dose) was “one”. Moreover, the “peak concentration in plasma” value in data set [2] (patient P1, oral 0.27 mg/kg (5 mg) dose, 0.27 mg/kg) is 1125 ng/ml and 3.5 μM. Moreover, the “plasma concentration over time profile” value in data set [2] (patient P1, oral dose) is “rapid absorption and elimination”. Also, in data set [2] (patient P1, oral dose, plasma), the t½ was 1 to 2 h. For the same compound, the “share of reduced glycopeptides improved post-treatment” value in data set [3] (665 of 1,448) amounted to 46%. Besides, the “improved glycopeptides that had reduced glycosylation in PMM-deficient fibroblasts compared to controls” value in data set [3] (among the 412 improved) was found to be 97 glycopeptides. Moreover, in data set [3] (of 1,448 reduced in untreated PMM-deficient fibroblasts), the “number of glycopeptides improved post-treatment, becoming similar to controls” value is listed as 665 glycopeptides. Besides, in data set [3] (paired epalrestat vs vehicle), the “number of glycopeptides with differential (enhanced) abundance after epalrestat” value was found to be 412 glycopeptides. The “ICAM-1 Asn267 glycopeptide (Hex7HexNAc6NeuAc2Fuc5) increase in abundance” value in data set [3] (paired epalrestat vs. vehicle analysis) is 10%.
